Laboratory results published in patent publication US20020052295A1, “Diacyl derivatives of propylene diamine having herbicidal activity” (priority 1999, published 2002).

Experiments:
Details in all cases: lowest tested rate giving 80% or greater inhibition, approx. 14 days after planting and treating, greenhouse
CIRAR = experiment: Pre-emergence herbicidal activity on CIRAR (canada thistle, seedling); type: in vivo, Cirsium arvense
From the text: (§1) All such uses, and the biological activity enabling such uses, are embraced by the term “herbicidal” herein. Tables 15 and 16 summarize results of tests conducted as described below to determine the pre-emergence herbicidal activity, in the form of a GR80 value, of illustrative compounds of this invention. […] Where herbicidal activity was evident but 80% inhibition was not achieved at the highest rate tested (typically 1000 g/ha), an asterisk (*) is shown in the following tables. Herbicidal activity evident in the form of symptoms of phytotoxicity, in the absence of at least 80% inhibition at any rate, is indicated in the tables by “phyto”. A blank cell in the following tables indicates no herbicidal or phytotoxic response at any rate tested.
(§2) The pre-emergence tests were conducted by the following procedure. Topsoil was sieved to pass through a 1.27 cm screen. Fertilizer was added to the topsoil and the mixture was then sterilized by heating. The topsoil mixture was placed in a pot and compacted to a depth of 1.0 to 1.25 cm from the top of the pot. Seeds of each of several monocotyledonous and dicotyledonous annual plant species were placed on top of the soil. Additional soil was subsequently placed over the seeds to level-fill the pot. A known amount of each test compound dissolved or suspended in an appropriate organic solvent was diluted with a 50:50 mix of acetone and water and applied to the surface of the soil. After treatment the plants were placed in a greenhouse with a 30/21° C. day/night temperature regime where they received 0.64 cm of overhead irrigation. All subsequent watering consisted of a light overhead mist and/or subirrigation as needed for germination and growth.
(§3) Approximately 14 days after planting and treating, the plants were observed and herbicidal efficacy recorded as percent inhibition by comparison with untreated plants.
(§4) The plant species usually regarded as weeds which were utilized in the tests are identified in the tables below according to the following legend, in which “d” indicates a dicotyledonous species and “m” a monocotyledonous species. All monocotyledonous species included in the tests herein are grasses.

CHEAL = experiment: Pre-emergence herbicidal activity on CHEAL (common lambsquarters); type: in vivo, Chenopodium album
From the text: as §1, §2, §3, §4

DIGSA = experiment: Pre-emergence herbicidal activity on DIGSA (large crabgrass); type: in vivo, Digitaria sanguinalis
From the text: as §1, §2, §3, §4

ABUTH = experiment: Pre-emergence herbicidal activity on ABUTH (velvetleaf); type: in vivo, Abutilon theophrasti
From the text: as §1, §2, §3, §4

AMARE = experiment: Pre-emergence herbicidal activity on AMARE (redroot pigweed); type: in vivo, Amaranthus retroflexus
From the text: as §1, §2, §3, §4

SETFA = experiment: Pre-emergence herbicidal activity on SETFA (giant foxtail); type: in vivo, Setaria faberi
From the text: as §1, §2, §3, §4

SOLNI = experiment: Pre-emergence herbicidal activity on SOLNI (black nightshade); type: in vivo, Solanum nigrum
From the text: as §1, §2, §3, §4

PANDI = experiment: Pre-emergence herbicidal activity on PANDI (fall panicum); type: in vivo, Panicum dichotomiflorum
From the text: as §1, §2, §3, §4

POROL = experiment: Pre-emergence herbicidal activity on POROL (common purslane); type: in vivo, Portulaca oleracea
From the text: as §1, §2, §3, §4

PANMI = experiment: Pre-emergence herbicidal activity on PANMI (wild proso millet); type: in vivo, Panicum miliaceum
From the text: as §1, §2, §3, §4

DATST = experiment: Pre-emergence herbicidal activity on DATST (jimsonweed); type: in vivo, Datura stramonium
From the text: as §1, §2, §3, §4

SMILES | Pre-emergence activity (GR80) on CIRAR (CIRAR) | Pre-emergence activity (GR80) on CHEAL (CHEAL) | Pre-emergence activity (GR80) on DIGSA (DIGSA) | Pre-emergence activity (GR80) on ABUTH (ABUTH) | Pre-emergence activity (GR80) on AMARE (AMARE) [g/ha] | Pre-emergence activity (GR80) on SETFA (SETFA) | Pre-emergence activity (GR80) on SOLNI (SOLNI) | Pre-emergence activity (GR80) on PANDI (PANDI) | Pre-emergence activity (GR80) on PORAL (POROL) [g/ha] | Pre-emergence activity (GR80) on PANMI (PANMI) | Pre-emergence activity (GR80) on DATST (DATST)
CC(CNC(=O)c1cccc(Cl)c1)NC(=O)c1cccc(C(F)(F)F)c1F (stereo not drawn) [Example 145] | 125 g/ha | 125 g/ha | 250 g/ha | 500 g/ha | 125 | 750 g/ha | 1000 g/ha | 500 g/ha | 125 |  | 
O=C(NCC(CF)NC(=O)c1cccc(C(F)(F)F)c1)c1cccc(C(F)(F)F)c1 (stereo not drawn) [Example 10, N,N′-(3-fluoro-1,2-propanediylbis)-3-(trifluoromethyl) benzamide] | phyto | 750 g/ha | phyto |  | 500 | phyto |  | 1000 g/ha | 1000 | phyto | phyto
Cc1c(I)cccc1C(=O)NC(C)CNC(=O)c1cccc(C(F)(F)F)c1 (stereo not drawn) [Example 61] | 250 g/ha | 1000 g/ha | 1000 g/ha | * (Where herbicidal activity was evident but 80% inhibition was not achieved at the highest rate tested (typically 1000 g/ha), an asterisk (*) is shown) | 750 | 1000 g/ha | 250 g/ha | 750 g/ha | 500 |  | 1000 g/ha
Cc1c(Cl)cccc1C(=O)NCC(C)NC(=O)c1cccc(Cl)c1C (stereo not drawn) [Example 203] | phyto | 1000 g/ha |  | phyto |  |  | phyto |  |  |  | phyto
CC(CNC(=O)c1cccc(C(F)(F)F)c1)NC(=O)c1c(-c2ccc(F)cc2Cl)noc1C(F)(F)Cl (stereo not drawn) [Example 264] |  | 500 g/ha |  |  | 250 |  | 250 g/ha | 1000 g/ha | 500 |  | 1000 g/ha
COc1c(C)cccc1C(=O)NC(C)CNC(=O)c1cccc(C(F)(F)F)c1 (stereo not drawn) [Example 68] |  |  | phyto |  |  |  |  | phyto |  |  | 
CC(CNC(=O)c1cccc(C(F)(F)F)c1)NC(=O)c1cccc(C(F)(F)F)c1OCc1ccccc1 (stereo not drawn) [Example 20] | phyto | phyto | phyto |  | 1000 |  |  | phyto |  | phyto | 
CC(CNC(=O)c1cccc(C(F)(F)F)c1)NC(=O)c1ccc(F)c(C(F)(F)F)c1 (stereo not drawn) [Example 6] |  |  | phyto |  | 1000 | phyto |  | phyto |  | phyto | 
COc1c(C(=O)NC(C)CNC(=O)c2cccc(C(F)(F)F)c2)cccc1C(F)(F)F (stereo not drawn) [Example 17] |  | 1000 g/ha | 1000 g/ha |  | 1000 | phyto | phyto | phyto | 1000 |  | phyto
